Measurements taken from ChEMBL document CHEMBL1777706, “Discovery of selective and orally available spiro-3-piperidyl ATP-competitive MK2 inhibitors” (Bioorg Med Chem Lett, 2011).
Active and inactive are the calls of the source. The rule behind the calls is not given here.

Columns and labels:
THP-1 = test: Antiinflammatory activity in human THP1 cells assessed as inhibition of LPS-induced TNFalpha production pretreated 30 mins before LPS challenge measured after 4 hrs; type: functional, cell-based
[1] = target: Serine/threonine-protein kinase Chk2 (Homo sapiens) (UniProt O96017); test: Inhibition of CHK2 at 1 uM
Serine/threonine-protein kinase Chk2 (Homo sapiens), sequence (O96017 whole entry): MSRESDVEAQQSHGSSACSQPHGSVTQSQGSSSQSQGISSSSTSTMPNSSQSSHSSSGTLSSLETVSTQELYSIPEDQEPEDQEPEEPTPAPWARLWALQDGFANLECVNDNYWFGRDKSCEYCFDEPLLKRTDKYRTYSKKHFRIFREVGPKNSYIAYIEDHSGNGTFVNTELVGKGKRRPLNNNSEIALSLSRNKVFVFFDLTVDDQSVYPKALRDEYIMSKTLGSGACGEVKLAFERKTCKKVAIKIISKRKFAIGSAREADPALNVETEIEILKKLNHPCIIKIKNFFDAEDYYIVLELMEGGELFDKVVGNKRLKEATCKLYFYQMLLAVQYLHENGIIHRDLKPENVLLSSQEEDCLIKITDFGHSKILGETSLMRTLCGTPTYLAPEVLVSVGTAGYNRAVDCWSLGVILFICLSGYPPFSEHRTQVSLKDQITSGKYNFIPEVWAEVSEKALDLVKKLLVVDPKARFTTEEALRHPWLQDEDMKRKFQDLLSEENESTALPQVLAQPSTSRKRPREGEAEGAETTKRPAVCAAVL

[2] = target: Serine/threonine-protein kinase pim-3 (Homo sapiens) (UniProt Q86V86); test: Inhibition of PIM3 at 1 uM
PBMC = test: Antiinflammatory activity in human PBMC cells assessed as inhibition of LPS-induced TNFalpha production pretreated 30 mins before LPS challenge measured after 4 hrs by ELISA; type: functional, cell-based
[3] = Inhibition of p38
[4] = target: T1, MAP kinase-activated protein kinase 2 (Homo sapiens, UniProt P49137); test: Inhibition of MK2 in LPS-stimulated human THP1 cells assessed as inhibition of Hsp27 phosphorylation pretreated 60 mins before LPS challenge measured after 10 mins; type: cell-based, THP-1
T1 sequence (P49137 whole entry): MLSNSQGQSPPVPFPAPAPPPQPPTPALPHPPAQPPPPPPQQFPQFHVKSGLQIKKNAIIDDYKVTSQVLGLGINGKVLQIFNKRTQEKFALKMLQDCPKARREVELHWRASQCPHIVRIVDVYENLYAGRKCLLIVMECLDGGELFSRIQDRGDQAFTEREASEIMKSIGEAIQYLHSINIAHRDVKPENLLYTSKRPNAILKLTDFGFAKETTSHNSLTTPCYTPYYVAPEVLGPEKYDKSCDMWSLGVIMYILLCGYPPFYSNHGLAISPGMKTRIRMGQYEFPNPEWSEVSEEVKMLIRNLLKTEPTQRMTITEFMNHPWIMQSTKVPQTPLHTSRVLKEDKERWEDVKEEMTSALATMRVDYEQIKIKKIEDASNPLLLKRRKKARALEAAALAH

[5] = target: Mitogen-activated protein kinase 3 (Homo sapiens) (UniProt P27361); test: Inhibition of ERK1 at 1 uM
Mitogen-activated protein kinase 3 (Homo sapiens), sequence (P27361 whole entry): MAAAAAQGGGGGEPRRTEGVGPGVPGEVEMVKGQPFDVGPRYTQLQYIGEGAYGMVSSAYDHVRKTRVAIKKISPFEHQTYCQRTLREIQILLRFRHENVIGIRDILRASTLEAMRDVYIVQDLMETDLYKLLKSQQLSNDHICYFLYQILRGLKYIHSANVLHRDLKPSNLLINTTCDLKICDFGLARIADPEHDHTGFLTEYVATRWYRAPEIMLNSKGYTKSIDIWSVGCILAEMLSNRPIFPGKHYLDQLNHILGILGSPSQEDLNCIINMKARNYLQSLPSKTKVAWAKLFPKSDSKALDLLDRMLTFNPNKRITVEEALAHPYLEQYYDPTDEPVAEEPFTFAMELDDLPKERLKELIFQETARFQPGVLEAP

[6] = target: Mitogen-activated protein kinase 1 (Homo sapiens) (UniProt P28482); test: Inhibition of ERK2 at 1 uM
Mitogen-activated protein kinase 1 (Homo sapiens), sequence (P28482 whole entry, looked up): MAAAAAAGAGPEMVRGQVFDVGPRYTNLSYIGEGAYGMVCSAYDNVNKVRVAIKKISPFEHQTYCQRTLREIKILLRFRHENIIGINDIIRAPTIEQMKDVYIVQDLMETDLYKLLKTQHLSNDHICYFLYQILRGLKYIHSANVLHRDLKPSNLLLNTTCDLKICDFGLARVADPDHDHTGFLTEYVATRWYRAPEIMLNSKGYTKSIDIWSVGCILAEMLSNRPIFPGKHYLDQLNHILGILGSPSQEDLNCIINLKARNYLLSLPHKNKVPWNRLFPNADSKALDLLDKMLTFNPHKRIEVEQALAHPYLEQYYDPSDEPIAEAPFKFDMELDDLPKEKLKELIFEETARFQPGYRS

[7] = target: Serine/threonine-protein kinase pim-1 (Homo sapiens) (UniProt P11309); test: Inhibition of PIM1 at 1 uM
Serine/threonine-protein kinase pim-1 (Homo sapiens), sequence (P11309 whole entry, looked up): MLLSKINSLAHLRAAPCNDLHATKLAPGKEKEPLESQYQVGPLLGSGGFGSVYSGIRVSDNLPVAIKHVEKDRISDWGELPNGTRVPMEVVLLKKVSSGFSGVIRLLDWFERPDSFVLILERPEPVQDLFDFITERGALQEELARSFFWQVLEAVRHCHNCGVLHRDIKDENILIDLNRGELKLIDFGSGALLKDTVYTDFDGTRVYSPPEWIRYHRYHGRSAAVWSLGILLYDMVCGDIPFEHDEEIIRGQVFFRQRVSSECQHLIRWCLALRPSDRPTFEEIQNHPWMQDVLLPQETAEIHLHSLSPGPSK

[8] = target: T2, Serine/threonine-protein kinase 17A (Homo sapiens) (UniProt Q9UEE5); test: Inhibition of DRAK1 at 1 uM
T2 sequence (whole entry): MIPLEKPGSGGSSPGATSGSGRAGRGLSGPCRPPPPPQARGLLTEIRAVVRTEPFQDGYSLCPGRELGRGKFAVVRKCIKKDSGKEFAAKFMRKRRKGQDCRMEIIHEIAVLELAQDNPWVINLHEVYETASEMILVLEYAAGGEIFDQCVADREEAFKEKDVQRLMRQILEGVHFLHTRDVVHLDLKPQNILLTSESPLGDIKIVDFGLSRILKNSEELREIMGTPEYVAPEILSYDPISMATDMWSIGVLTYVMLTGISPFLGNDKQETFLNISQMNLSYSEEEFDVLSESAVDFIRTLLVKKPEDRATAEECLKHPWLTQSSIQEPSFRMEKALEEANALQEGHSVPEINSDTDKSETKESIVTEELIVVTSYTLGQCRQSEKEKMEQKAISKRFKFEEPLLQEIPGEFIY

[9] = target: T1, MAP kinase-activated protein kinase 2; test: Inhibition of MK2 pretreated for 30 mins before fluorescein labeled substrate peptide addition measured after 2 hrs by IMAP assay

O=C1NC[C@@]2(CCCNC2)c2[nH]c(-c3ccnc(-c4ccc5c(c4)OCO5)n3)cc21
EC50 (THP-1): 850 nM
inhibition [1]: > 80%
inhibition [2]: > 80%
EC50 (PBMC): 450 nM
inhibition [3]: inactive
EC50 [4]: 500 nM
inhibition [5]: > 80%
inhibition [6]: > 80%
inhibition [7]: > 80%
inhibition [8]: > 80%
EC50 [9]: 7.4 nM

O=C1NCC2(CCNCC2)c2[nH]c(-c3ccnc(-c4cnc(NC5CCCC5)nc4)n3)cc21
EC50 (THP-1): 2600 nM
inhibition [1]: > 80%
inhibition [2]: > 80%
inhibition [3]: inactive
inhibition [5]: > 80%
inhibition [6]: > 80%
inhibition [7]: > 80%
inhibition [8]: > 80%
EC50 [9]: 4.9 nM

Nc1ncc(-c2nccc(-c3cc4c([nH]3)C3(CCNCC3)CNC4=O)n2)cn1
EC50 (THP-1): > 10000 nM
inhibition [1]: > 80%
inhibition [2]: > 80%
inhibition [3]: inactive
inhibition [5]: > 80%
inhibition [6]: > 80%
inhibition [7]: > 80%
inhibition [8]: > 80%
EC50 [9]: 5 nM

O=C1NCC2(CCNCC2)c2[nH]c(-c3ccnc(-c4ccc5c(c4)OCCCO5)n3)cc21
EC50 (THP-1): 4900 nM
inhibition [1]: > 80%
inhibition [2]: > 80%
inhibition [3]: inactive
inhibition [5]: > 80%
inhibition [6]: > 80%
inhibition [7]: > 80%
inhibition [8]: > 80%
EC50 [9]: 10 nM

O=C1NC[C@@]2(CCCNC2)c2[nH]c(-c3ccnc(-c4cccnc4)n3)cc21
EC50 (THP-1): 1600 nM
inhibition [1]: > 80%
inhibition [2]: > 80%
EC50 (PBMC): 930 nM
inhibition [3]: inactive
EC50 [4]: 1200 nM
inhibition [5]: > 80%
inhibition [6]: > 80%
inhibition [7]: > 80%
inhibition [8]: > 80%
EC50 [9]: 6.5 nM

O=C1NCC2(CCNCC2)c2[nH]c(-c3ccnc(-c4cc(Cl)cc(Cl)c4)n3)cc21
EC50 (THP-1): 6300 nM
inhibition [1]: > 80%
inhibition [2]: > 80%
inhibition [3]: inactive
inhibition [5]: > 80%
inhibition [6]: > 80%
inhibition [7]: > 80%
inhibition [8]: > 80%
EC50 [9]: 4.5 nM

COCCCOc1ccc(-c2nccc(-c3cc4c([nH]3)[C@@]3(CCCNC3)CNC4=O)n2)cn1
EC50 (THP-1): > 10000 nM
inhibition [1]: > 80%
inhibition [2]: > 80%
EC50 (PBMC): 6900 nM
inhibition [3]: inactive
EC50 [4]: > 10000 nM
inhibition [5]: > 80%
inhibition [6]: > 80%
inhibition [7]: > 80%
inhibition [8]: > 80%
EC50 [9]: 129 nM

CC(=O)c1cccc(-c2nccc(-c3cc4c([nH]3)C3(CCNCC3)CNC4=O)n2)c1
EC50 (THP-1): 6200 nM
inhibition [1]: > 80%
inhibition [2]: > 80%
inhibition [3]: inactive
inhibition [5]: > 80%
inhibition [6]: > 80%
inhibition [7]: > 80%
inhibition [8]: > 80%
EC50 [9]: 11 nM

CC(C)c1cccc(-c2nccc(-c3cc4c([nH]3)C3(CCNCC3)CNC4=O)n2)c1
EC50 (THP-1): > 10000 nM
inhibition [1]: > 80%
inhibition [2]: > 80%
inhibition [3]: inactive
inhibition [5]: > 80%
inhibition [6]: > 80%
inhibition [7]: > 80%
inhibition [8]: > 80%
EC50 [9]: 112 nM

CC(C)(C)c1ccc(-c2nccc(-c3cc4c([nH]3)C3(CCNCC3)CNC4=O)n2)cc1
EC50 (THP-1): 5900 nM
inhibition [1]: > 80%
inhibition [2]: > 80%
inhibition [3]: inactive
inhibition [5]: > 80%
inhibition [6]: > 80%
inhibition [7]: > 80%
inhibition [8]: > 80%
EC50 [9]: 6.2 nM

O=C1NCC2(CCNCC2)c2[nH]c(-c3ccnc(-c4cccc(C(F)(F)F)c4)n3)cc21
EC50 (THP-1): 4200 nM
inhibition [1]: > 80%
inhibition [2]: > 80%
inhibition [3]: inactive
inhibition [5]: > 80%
inhibition [6]: > 80%
inhibition [7]: > 80%
inhibition [8]: > 80%
EC50 [9]: 15 nM

O=C1NCC2(CCNCC2)c2[nH]c(-c3ccnc(-c4cccnc4)n3)cc21
EC50 (THP-1): > 10000 nM
inhibition [1]: > 80%
inhibition [2]: > 80%
inhibition [3]: inactive
inhibition [5]: > 80%
inhibition [6]: > 80%
inhibition [7]: > 80%
inhibition [8]: > 80%
EC50 [9]: 1.1 nM

O=C1NCC2(CCNCC2)c2[nH]c(-c3ccnc(-c4ccccc4F)n3)cc21
EC50 (THP-1): 4200 nM
inhibition [1]: > 80%
inhibition [2]: > 80%
inhibition [3]: inactive
inhibition [5]: > 80%
inhibition [6]: > 80%
inhibition [7]: > 80%
inhibition [8]: > 80%
EC50 [9]: 29 nM

CCC(=O)Nc1ccc(-c2nccc(-c3cc4c([nH]3)C3(CCNCC3)CNC4=O)n2)cn1
EC50 (THP-1): > 10000 nM
inhibition [1]: > 80%
inhibition [2]: > 80%
inhibition [3]: inactive
inhibition [5]: > 80%
inhibition [6]: > 80%
inhibition [7]: > 80%
inhibition [8]: > 80%
EC50 [9]: 6.2 nM

O=C1NCCc2[nH]c(-c3ccnc(-c4ccccc4F)c3)cc21
EC50 (THP-1): 9100 nM
inhibition [1]: > 80%
inhibition [2]: > 80%
inhibition [3]: inactive
inhibition [7]: > 80%
inhibition [8]: > 80%

O=C1NCC2(CCNCC2)c2[nH]c(-c3ccnc(-c4ccc5ccccc5c4)n3)cc21
EC50 (THP-1): 3600 nM
inhibition [1]: > 80%
inhibition [2]: > 80%
inhibition [3]: inactive
inhibition [5]: > 80%
inhibition [6]: > 80%
inhibition [7]: > 80%
inhibition [8]: > 80%
EC50 [9]: 5.1 nM

O=C1NC[C@]2(CCCNC2)c2[nH]c(-c3ccnc(-c4cccnc4)n3)cc21
EC50 (THP-1): 8700 nM
inhibition [1]: > 80%
inhibition [2]: > 80%
EC50 (PBMC): 4300 nM
inhibition [3]: inactive
EC50 [4]: 5800 nM
inhibition [5]: > 80%
inhibition [6]: > 80%
inhibition [7]: > 80%
inhibition [8]: > 80%
EC50 [9]: 288 nM

COCCCOc1ccc(-c2nccc(-c3cc4c([nH]3)[C@]3(CCCNC3)CNC4=O)n2)cn1
EC50 (THP-1): 980 nM
inhibition [1]: > 80%
inhibition [2]: > 80%
EC50 (PBMC): 430 nM
inhibition [3]: inactive
EC50 [4]: 400 nM
inhibition [5]: > 80%
inhibition [6]: > 80%
inhibition [7]: > 80%
inhibition [8]: > 80%
EC50 [9]: 6.9 nM

COc1cncc(-c2nccc(-c3cc4c([nH]3)C3(CCNCC3)CNC4=O)n2)c1
EC50 (THP-1): > 10000 nM
inhibition [1]: > 80%
inhibition [2]: > 80%
inhibition [3]: inactive
inhibition [5]: > 80%
inhibition [6]: > 80%
inhibition [7]: > 80%
inhibition [8]: > 80%
EC50 [9]: 6.9 nM

COc1cncc(-c2nccc(-c3cc4c([nH]3)[C@]3(CCCNC3)CNC4=O)n2)c1
EC50 (THP-1): 2400 nM
inhibition [1]: > 80%
inhibition [2]: > 80%
EC50 (PBMC): 1300 nM
inhibition [3]: inactive
EC50 [4]: 1100 nM
inhibition [5]: > 80%
inhibition [6]: > 80%
inhibition [7]: > 80%
inhibition [8]: > 80%
EC50 [9]: 9.3 nM

O=C1NCC2(CCNCC2)c2[nH]c(-c3ccnc(-c4ccc(C(F)(F)F)cc4)n3)cc21
EC50 (THP-1): 6300 nM
inhibition [1]: > 80%
inhibition [2]: > 80%
inhibition [3]: inactive
inhibition [5]: > 80%
inhibition [6]: > 80%
inhibition [7]: > 80%
inhibition [8]: > 80%
EC50 [9]: 6.9 nM

O=C1NCC2(CCNCC2)c2[nH]c(-c3ccnc(-c4cnc5ccccc5c4)n3)cc21
EC50 (THP-1): 4800 nM
inhibition [1]: > 80%
inhibition [2]: > 80%
inhibition [3]: inactive
inhibition [5]: > 80%
inhibition [6]: > 80%
inhibition [7]: > 80%
inhibition [8]: > 80%

O=C1NCC2(CCOCC2)c2[nH]c(-c3ccnc(-c4ccc5c(c4)OCO5)n3)cc21
EC50 (THP-1): > 10000 nM
inhibition [1]: > 80%
inhibition [2]: > 80%
inhibition [3]: inactive
inhibition [5]: > 80%
inhibition [6]: > 80%
inhibition [7]: > 80%
inhibition [8]: > 80%
EC50 [9]: 724 nM

CC(=O)c1ccc(-c2nccc(-c3cc4c([nH]3)C3(CCNCC3)CNC4=O)n2)cc1
EC50 (THP-1): 5000 nM
inhibition [1]: > 80%
inhibition [2]: > 80%
inhibition [3]: inactive
inhibition [5]: > 80%
inhibition [6]: > 80%
inhibition [7]: > 80%
inhibition [8]: > 80%
EC50 [9]: 9.8 nM

O=C1NCC2(CCNCC2)c2[nH]c(-c3ccnc(-c4cccc(F)c4)n3)cc21
EC50 (THP-1): 1400 nM
inhibition [1]: > 80%
inhibition [2]: > 80%
inhibition [3]: inactive
inhibition [5]: > 80%
inhibition [6]: > 80%
inhibition [7]: > 80%
inhibition [8]: > 80%
EC50 [9]: 8.3 nM

Nc1ccc(-c2nccc(-c3cc4c([nH]3)C3(CCNCC3)CNC4=O)n2)cn1
EC50 (THP-1): > 10000 nM
inhibition [1]: > 80%
inhibition [2]: > 80%
inhibition [3]: inactive
inhibition [5]: > 80%
inhibition [6]: > 80%
inhibition [7]: > 80%
inhibition [8]: > 80%
EC50 [9]: 15 nM
